# Reference: paper PMC6443244 (Cell chemical biology, 2016)
# Molecular target: Fatty acid synthase (FASN) (Homo sapiens, UniProt P49327)
# Test: […]malonyl-CoA incorporation into fatty acids by purified FASN
# Type: biochemical
# Sequence of Fatty acid synthase (FASN) (P49327 whole entry): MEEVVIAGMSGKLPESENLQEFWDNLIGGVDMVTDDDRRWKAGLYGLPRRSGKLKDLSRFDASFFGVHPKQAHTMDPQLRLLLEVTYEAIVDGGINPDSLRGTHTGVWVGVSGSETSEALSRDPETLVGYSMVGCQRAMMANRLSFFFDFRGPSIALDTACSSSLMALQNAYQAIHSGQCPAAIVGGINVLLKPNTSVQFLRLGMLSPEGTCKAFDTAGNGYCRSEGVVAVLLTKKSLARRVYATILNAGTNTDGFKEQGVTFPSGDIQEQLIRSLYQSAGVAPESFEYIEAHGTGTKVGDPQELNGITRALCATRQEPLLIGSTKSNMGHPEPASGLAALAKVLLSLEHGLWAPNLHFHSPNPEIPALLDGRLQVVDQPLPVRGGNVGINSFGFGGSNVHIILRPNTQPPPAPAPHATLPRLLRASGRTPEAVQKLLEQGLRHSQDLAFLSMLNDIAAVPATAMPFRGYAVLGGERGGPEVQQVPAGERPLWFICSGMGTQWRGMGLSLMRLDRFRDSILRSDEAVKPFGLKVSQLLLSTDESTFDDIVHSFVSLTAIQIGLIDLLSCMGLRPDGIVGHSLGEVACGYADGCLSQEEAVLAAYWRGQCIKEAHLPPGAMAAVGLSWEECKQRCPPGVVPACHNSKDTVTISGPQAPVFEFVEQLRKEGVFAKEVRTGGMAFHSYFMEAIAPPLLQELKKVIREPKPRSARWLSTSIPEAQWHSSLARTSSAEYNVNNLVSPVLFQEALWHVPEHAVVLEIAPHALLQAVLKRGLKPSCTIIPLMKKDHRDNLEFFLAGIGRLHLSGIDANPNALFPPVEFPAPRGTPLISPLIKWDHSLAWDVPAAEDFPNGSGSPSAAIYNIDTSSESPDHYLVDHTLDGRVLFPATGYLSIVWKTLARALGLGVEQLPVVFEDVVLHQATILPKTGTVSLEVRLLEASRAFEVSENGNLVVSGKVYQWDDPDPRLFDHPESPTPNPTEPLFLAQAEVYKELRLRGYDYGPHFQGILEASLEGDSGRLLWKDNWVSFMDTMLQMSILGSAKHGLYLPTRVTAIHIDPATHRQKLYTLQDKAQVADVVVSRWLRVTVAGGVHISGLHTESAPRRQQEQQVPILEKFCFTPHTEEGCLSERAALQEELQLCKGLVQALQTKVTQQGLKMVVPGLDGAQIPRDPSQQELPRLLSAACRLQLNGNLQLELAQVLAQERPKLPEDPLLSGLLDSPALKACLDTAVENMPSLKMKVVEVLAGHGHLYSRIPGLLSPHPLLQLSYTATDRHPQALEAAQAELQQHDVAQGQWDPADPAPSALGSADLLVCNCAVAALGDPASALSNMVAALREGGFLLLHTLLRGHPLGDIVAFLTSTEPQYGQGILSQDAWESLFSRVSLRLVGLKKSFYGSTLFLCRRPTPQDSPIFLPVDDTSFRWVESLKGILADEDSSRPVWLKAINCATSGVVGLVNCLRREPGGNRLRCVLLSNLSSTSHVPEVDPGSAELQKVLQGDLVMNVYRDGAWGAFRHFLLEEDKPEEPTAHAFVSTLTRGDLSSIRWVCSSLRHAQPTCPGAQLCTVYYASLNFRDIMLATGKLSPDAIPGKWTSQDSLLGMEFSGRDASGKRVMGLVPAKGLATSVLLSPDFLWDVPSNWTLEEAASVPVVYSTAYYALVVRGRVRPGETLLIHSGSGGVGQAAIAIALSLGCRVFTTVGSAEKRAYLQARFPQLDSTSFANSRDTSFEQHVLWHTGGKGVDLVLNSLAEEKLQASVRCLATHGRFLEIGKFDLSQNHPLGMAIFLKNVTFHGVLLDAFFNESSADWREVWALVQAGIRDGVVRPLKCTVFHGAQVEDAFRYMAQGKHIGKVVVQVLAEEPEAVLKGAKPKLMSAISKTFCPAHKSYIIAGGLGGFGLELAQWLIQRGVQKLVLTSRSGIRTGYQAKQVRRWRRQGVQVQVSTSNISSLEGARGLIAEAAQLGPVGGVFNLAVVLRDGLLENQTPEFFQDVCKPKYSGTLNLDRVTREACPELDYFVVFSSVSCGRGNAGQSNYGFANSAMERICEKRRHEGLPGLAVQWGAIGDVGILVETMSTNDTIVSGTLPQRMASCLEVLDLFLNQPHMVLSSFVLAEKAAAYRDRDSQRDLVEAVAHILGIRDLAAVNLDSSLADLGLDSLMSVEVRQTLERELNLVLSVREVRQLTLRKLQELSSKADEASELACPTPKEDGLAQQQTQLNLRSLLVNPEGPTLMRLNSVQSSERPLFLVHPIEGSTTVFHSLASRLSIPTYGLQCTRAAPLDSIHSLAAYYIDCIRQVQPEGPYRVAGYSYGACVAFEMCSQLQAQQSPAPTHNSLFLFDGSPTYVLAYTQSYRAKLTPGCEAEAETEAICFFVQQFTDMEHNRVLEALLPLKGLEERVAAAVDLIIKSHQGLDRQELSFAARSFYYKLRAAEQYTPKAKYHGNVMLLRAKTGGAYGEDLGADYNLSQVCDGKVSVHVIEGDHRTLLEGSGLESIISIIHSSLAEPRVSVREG
smiles,measurement,value
Cc1sc2ncnc(NC3CCN(Cc4ccccc4)C3)c2c1C (stereo not shown) [Fasnall],IC50,3.71 µM
